# Values quoted from earlier work as cited in US20090068287A1, “Novel topical formulations of flucytosine and uses thereof” (priority 2007, published 2009).
# Key:
# C. glabrata [1] = settings: boric acid 600 mg/day 2 to 3 weeks; flucytosine cream nightly for 14 days
# C. albicans = settings: 104 patients with vulvovaginal candidiasis
# Candida albicans = settings: 342 Candida albicans isolates
# C. tropicalis [2] = settings: 70 C. tropicalis isolates
# C. glabrata [3] = settings: 68 C. glabrata isolates
# C. parapsilosis = settings: 65 C. parapsilosis isolates
# [4] = human, in vivo
# C. tropicalis [5] = settings: 28 patients on miconazole nitrate, 13 on clotrimazole, nightly for seven nights; 3 secondarily on ketoconazole 200 mg for 14 days
structure (smiles),measurement,setting,value
C[C@@H]1[C@H](O)[C@@H](C)/C=C/C=C/C=C/C=C/C=C/C=C/C=C/[C@H](O[C@@H]2O[C@H](C)[C@@H](O)[C@H](N)[C@@H]2O)C[C@@H]2O[C@](O)(C[C@@H](O)C[C@@H](O)[C@H](O)CC[C@@H](O)C[C@@H](O)CC(=O)O[C@H]1C)C[C@H](O)[C@H]2C(=O)O [amphotericin B],cross-resistance of fluconazole/itraconazole resistant C. albicans isolates,clinical yeast isolates,no cross-resistance
OB(O)O [boric acid],"clinical and mycological success / successful outcome, number of women",C. glabrata [1],47 of 73
same,"clinical and mycological success / successful outcome, percent of women",C. glabrata [1],64%
OC(Cn1cncn1)(Cn1cncn1)c1ccc(F)cc1F [fluconazole],"resistant C. albicans isolated, share of the cases",C. albicans,13.46%
same,yeast strains resistant,clinical yeast isolates; 227 clinical yeast isolates,Almost thirteen percent
same,isolates showing resistance,Candida albicans,7.6%
same,isolates resistant,C. tropicalis [2],27.1%
same,isolates resistant,C. glabrata [3],10.3%
same,isolates resistant,C. parapsilosis,4.6%
"Nc1nc(=O)[nH]cc1F [flucytosine, 4-amino-5-fluoropyrimidin-2(1H)-one]",plasma level that led to bone marrow depression and hepatotoxicity,[4],greater than 100 mg/L
CC(=O)N1CCN(c2ccc(OCC3COC(Cn4ccnc4)(c4ccc(Cl)cc4Cl)O3)cc2)CC1 (stereo not drawn) [ketoconazole],cross-resistance of fluconazole/itraconazole resistant C. albicans isolates,clinical yeast isolates,decreased susceptibilities
same,isolates resistant,C. tropicalis [2],2.9%
same,patients with recurrences,C. tropicalis [5],all three
Clc1ccc(COC(Cn2ccnc2)c2ccc(Cl)cc2Cl)c(Cl)c1 (stereo not drawn) [miconazole],cross-resistance of fluconazole/itraconazole resistant C. albicans isolates,clinical yeast isolates,decreased susceptibilities
C[C@@H]1[C@H](O)[C@@H](C)/C=C/C=C/CC/C=C/C=C/C=C/C=C/C(O[C@H]2O[C@H](C)[C@@H](O)[C@H](N)[C@@H]2O)CC2O[C@](O)(CC(O)C(O)CCC(O)CC(O)CC(O)CC(=O)O[C@H]1C)CC(O)C2C(=O)O (stereo partly drawn) [nystatin],cross-resistance of fluconazole/itraconazole resistant C. albicans isolates,clinical yeast isolates,no cross-resistance
